Assay results: patent US20220289753A1, “SHP2 INHIBITORS” (IRBM S.P.A., priority 2019, published 2022)
pIC50: −log10 of the molar value.

Target: T1, SHP-2 enzyme (Met1-Leu525) (Homo sapiens, UniProt Q06124)
T1 construct: synthetized by Origene, Met1-Leu525, cat #TP750155; purchased Origene TP750155
T1 sequence (Q06124 1-525): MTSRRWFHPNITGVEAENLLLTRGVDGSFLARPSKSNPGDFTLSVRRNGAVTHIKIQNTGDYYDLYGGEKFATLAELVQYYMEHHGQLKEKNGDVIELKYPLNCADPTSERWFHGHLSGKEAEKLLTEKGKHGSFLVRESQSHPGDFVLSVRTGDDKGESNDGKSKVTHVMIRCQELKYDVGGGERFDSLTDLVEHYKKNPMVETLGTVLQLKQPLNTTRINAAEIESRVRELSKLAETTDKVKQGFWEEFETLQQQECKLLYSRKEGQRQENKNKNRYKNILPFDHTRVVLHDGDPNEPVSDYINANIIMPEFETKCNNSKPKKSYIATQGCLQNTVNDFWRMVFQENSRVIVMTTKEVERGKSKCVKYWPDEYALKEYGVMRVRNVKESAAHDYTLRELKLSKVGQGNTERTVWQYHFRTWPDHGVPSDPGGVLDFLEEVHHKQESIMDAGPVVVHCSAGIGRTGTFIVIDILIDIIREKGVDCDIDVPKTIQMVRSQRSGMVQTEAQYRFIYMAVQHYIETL
Test: SHP2 inhibition enzymatic assay (DiFMUP substrate, IRS1 peptide activation)
Format: biochemical
Settings: SHP2 wt; activated by 500 nM IRS1 peptide; 75 μM DiFMUP substrate
Method: SHP2 Inhibition Enzymatic Assay
Assay volume of 20 μL/well was assembled in 384 well black polystyrene low-binding microplates (Greiner), using the following buffer: 60 mM HEPES pH 7.2, 75 mM NaCl, 75 mM KCl, 1 mM EDTA pH 8, 0.05% tween-20, 5 mM DTT. The SHP-2 enzyme (synthetized by Origene, Met1-Leu525, cat #TP750155) was used at a final concentration of 0.5 nM.
Briefly, DMSO serially diluted testing compounds were transferred to the bottom of the assay plate. SHP2 was then added together with the IRS1 peptide. 30 minutes post incubation, the DiFMUP substrate was added to the reaction and incubated 30 min at room temperature. […] The fluorescence was detected by a microplate reader (Envision, PerkinElmer) according to the DiFMUP excitation and emission wavelength. The lower the fluorescence the higher the SHP2 inhibition.
The percentage inhibition is fitted against the compound dilutions with a four-parameter logistic regression. The inflection point (i.e. the concentration at which half-maximal inhibition is achieved) is the IC50.

Compound	pIC50
Cn1ncc2cc(Sc3cnc4nc(N5CCC(C)(N)CC5)[nH]c4n3)ccc21 [Example 6, 4-methyl-1-(6-((1-methyl-1H-indazol-5-yl)thio)-1H-imidazo[4,5-b]pyrazin-2-yl)piperidin-4-amine]	5.52 to 6.30
CC1(N)CCN(c2nc3ncc(Sc4csc5cnccc45)nc3[nH]2)CC1 [Example 9, 4-methyl-1-(6-(thieno[2,3-c]pyridin-3-ylthio)-1H-imidazo[4,5-b]pyrazin-2-yl)piperidin-4-amine]	5.52 to 6.30
CC1(N)CCN(c2nc3ncc(Sc4ccc(-n5nc[nH]c5=O)cc4)nc3[nH]2)CC1 [Example 10, 2-(4-((2-(4-amino-4-methylpiperidin-1-yl)-1H-imidazo[4,5-b]pyrazin-6-yl)thio)phenyl)-2,4-dihydro-3H-1,2,4-triazol-3-one]	5.52 to 6.30
CC1(N)CCN(c2nc3ncc(Sc4ccccc4)nc3[nH]2)CC1 [Example 11, 4-methyl-1-(6-(phenylthio)-1H-imidazo[4,5-b]pyrazin-2-yl)piperidin-4-amine]	5.52 to 6.30
CC1(N)CCN(c2nc3ncc(Sc4cccnc4)nc3[nH]2)CC1 [Example 12, 4-methyl-1-(6-(pyridin-3-ylthio)-1H-imidazo[4,5-b]pyrazin-2-yl)piperidin-4-amine]	5.52 to 6.30
COc1ccccc1Sc1cnc2[nH]c(N3CCC(C)(N)CC3)nc2n1 [Example 24, 1-(5-((2-methoxyphenyl)thio)-1H-imidazo[4,5-b]pyrazin-2-yl)-4-methylpiperidin-4-amine]	> 6.30
COc1cccc(Sc2cnc3[nH]c(N4CCC(C)(N)CC4)nc3n2)c1 [Example 25, 1-(5-((3-methoxyphenyl)thio)-1H-imidazo[4,5-b]pyrazin-2-yl)-4-methylpiperidin-4-amine]	5.52 to 6.30
CC1(N)CCN(c2nc3nc(Sc4cccc(C#N)c4)cnc3[nH]2)CC1 [Example 26, 3-((2-(4-amino-4-methylpiperidin-1-yl)-1H-imidazo[4,5-b]pyrazin-5-yl)thio)benzonitrile]	5.52 to 6.30
CC1(N)CCN(c2nc3nc(Sc4ccc(OC(F)(F)F)cc4)cnc3[nH]2)CC1 [Example 27, 4-methyl-1-(5-((4-(trifluoromethoxy)phenyl)thio)-1H-imidazo[4,5-b]pyrazin-2-yl)piperidin-4-amine]	< 5.52
CC1(N)CCN(c2nc3nc(Sc4ccncc4Cl)cnc3[nH]2)CC1 [Example 28, 1-(5-((3-chloropyridin-4-yl)thio)-1H-imidazo[4,5-b]pyrazin-2-yl)-4-methylpiperidin-4-amine]	> 6.30
CC1(N)CCN(c2nc3ncc(Sc4ccc(C5(C#N)CCC5)cc4)nc3[nH]2)CC1 [Example 29, 1-(4-((2-(4-amino-4-methylpiperidin-1-yl)-1H-imidazo[4,5-b]pyrazin-6-yl)thio)phenyl)cyclobutane-1-carbonitrile]	< 5.52
CC1(N)CCN(c2nc3ncc(Sc4csc5ccccc45)nc3[nH]2)CC1 [Example 30, 1-(6-(benzo[b]thiophen-3-ylthio)-1H-imidazo[4,5-b]pyrazin-2-yl)-4-methylpiperidin-4-amine]	< 5.52

Second part, the compound after the results:

pIC50	Compound
5.52 to 6.30	Cn1c(N2CCC(C)(N)CC2)nc2ncc(Sc3cccnc3C(F)(F)F)nc21 [Example 4, 4-methyl-1-(1-methyl-6-((2-(trifluoromethyl)pyridin-3-yl)thio)-1H-imidazo[4,5-b]pyrazin-2-yl)piperidin-4-amine]
5.52 to 6.30	FC(F)(F)c1ncccc1Sc1cnc2[nH]c(N3CCC4(CCN4)CC3)nc2n1 [Example 5, 2-(1,7-diazaspiro[3.5]nonan-7-yl)-5-((2-(trifluoromethyl)pyridin-3-yl)thio)-1H-imidazo[4,5-b]pyrazine]
5.52 to 6.30	NC1CCN(c2nc3nc(Sc4cccnc4C(F)(F)F)cnc3[nH]2)CC1 [Example 7, 1-(5-((2-(trifluoromethyl)pyridin-3-yl)thio)-1H-imidazo[4,5-b]pyrazin-2-yl)piperidin-4-amine]
5.52 to 6.30	NCC1CCN(c2nc3nc(Sc4cccnc4C(F)(F)F)cnc3[nH]2)CC1 [Example 8, (1-(5-((2-(trifluoromethyl)pyridin-3-yl)thio)-1H-imidazo[4,5-b]pyrazin-2-yl)piperidin-4-yl)methanamine]
5.52 to 6.30	CC1(N)CCN(c2nc3nc(Sc4cccnc4C(F)(F)F)cnc3n2CC2CC2)CC1 [Example 13, 1-(1-(cyclopropylmethyl)-5-((2-(trifluoromethyl)pyridin-3-yl)thio)-1H-imidazo[4,5-b]pyrazin-2-yl)-4-methylpiperidin-4-amine]
< 5.52	NC1CN(c2nc3nc(Sc4cccnc4C(F)(F)F)cnc3[nH]2)C1 [Example 15, 1-(5-((2-(trifluoromethyl)pyridin-3-yl)thio)-1H-imidazo[4,5-b]pyrazin-2-yl)azetidin-3-amine]
5.52 to 6.30	CNC1CCN(c2nc3nc(Sc4cccnc4C(F)(F)F)cnc3[nH]2)CC1 [Example 16, N-methyl-1-(5-((2-(trifluoromethyl)pyridin-3-yl)thio)-1H-imidazo[4,5-b]pyrazin-2-yl)piperidin-4-amine]
5.52 to 6.30	FC(F)(F)c1ncccc1Sc1cnc2[nH]c(N3CC4(CCCNC4)C3)nc2n1 [Example 17, 2-(2,6-diazaspiro[3.5]nonan-2-yl)-5-((2-(trifluoromethyl)pyridin-3-yl)thio)-1H-imidazo[4,5-b]pyrazine]
> 6.30	CC1(N)CCN(c2nc3nc(Sc4ccc(C#N)cc4C(F)(F)F)cnc3[nH]2)CC1 [Example 19, 4-((2-(4-amino-4-methylpiperidin-1-yl)-1H-imidazo[4,5-b]pyrazin-5-yl)thio)-3-(trifluoromethyl)benzonitrile]
> 6.30	CC1(N)CCN(c2nc3nc(Sc4ccc(F)cc4F)cnc3[nH]2)CC1 [Example 20, 1-(5-((2,4-difluorophenyl)thio)-1H-imidazo[4,5-b]pyrazin-2-yl)-4-methylpiperidin-4-amine]
5.52 to 6.30	CC1(N)CCN(c2nc3nc(Sc4cccc(F)c4F)cnc3[nH]2)CC1 [Example 21, 1-(5-((2,3-difluorophenyl)thio)-1H-imidazo[4,5-b]pyrazin-2-yl)-4-methylpiperidin-4-amine]
> 6.30	CC1(N)CCN(c2nc3nc(Sc4ccccc4C#N)cnc3[nH]2)CC1 [Example 23, 2-((2-(4-amino-4-methylpiperidin-1-yl)-1H-imidazo[4,5-b]pyrazin-5-yl)thio)benzonitrile]
5.52 to 6.30	FC(F)(F)c1ncccc1Sc1cnc2[nH]c(N3CCCCC3)nc2n1 [Example 31, 2-(piperidin-1-yl)-5-((2-(trifluoromethyl)pyridin-3-yl)thio)-1H-imidazo[4,5-b]pyrazine]
< 5.52	FC(F)(F)c1ncccc1Sc1cnc2[nH]c(NCc3ccn[nH]3)nc2n1 [Example 32, N-((1H-pyrazol-5-yl)methyl)-5-((2-(trifluoromethyl)pyridin-3-yl)thio)-1H-imidazo[4,5-b]pyrazin-2-amine]
> 6.30	NC1CCCN(c2nc3nc(Sc4cccnc4C(F)(F)F)cnc3[nH]2)C1 (stereo not shown) [Example 33, 1-(5-((2-(trifluoromethyl)pyridin-3-yl)thio)-1H-imidazo[4,5-b]pyrazin-2-yl)piperidin-3-amine]
5.52 to 6.30	CC1(N)CCN(c2nc3nc(Sc4cc(C(F)(F)F)ccc4Cl)cnc3[nH]2)CC1 [Example 36, 1-(5-((2-chloro-5-(trifluoromethyl)phenyl)thio)-1H-imidazo[4,5-b]pyrazin-2-yl)-4-methylpiperidin-4-amine]
